This test relates to anti-M2 human monoclonal antibody Z3G1. It is filed as binding.

For “1297 (MSLLTQVETPIRNEWGCRCN; epitope peptide) [compound 1297]”, the “Signal (peptides that bind to Z3G1)” value amounted to 1697.
“1577 (SLDTEVETPIRNEWGCRCNDSSD; epitope peptide) [compound 1577]”: the “Signal (peptides that show specific binding to Z3G1)” value worked out at 1505.
With “1359 (CLLTEVCTPIRNE; epitope peptide) [compound 1359]”, the “Signal (peptides that bind to Z3G1)” value amounted to 1585.
Regarding “1360 (CLLCEVETPIRNE; epitope peptide) [compound 1360]”, the “Signal (peptides that bind to Z3G1)” value amounted to 2314.
Still for that read-out and setting: for “1287 (MSLLLEVETPIRNEWGCRCN; epitope peptide) [compound 1287]” the value was 2804.
On the same count and under the same terms, for “1271 (MSLFTEVETPIRNEWGCRCN; epitope peptide) [compound 1271]” the value was 2115.
On to “1570 (MLLTEVETPIRNEWGCRCNDSSD; epitope peptide) [compound 1570]”, for which the “Signal (peptides that show specific binding to Z3G1)” value came to 2126.
Consider “1582 (SLLGEVETPIRNEWGCRCNDSSD; epitope peptide) [compound 1582]”, for which the “Signal (peptides that show specific binding to Z3G1)” value turned out to be 2301.
Same read-out and setting: as for “1576 (YLLTEVETPIRNEWGCRCNDSSD; epitope peptide) [compound 1576]”, the figure is 1882; as for “1512 (CTEVETPIRNLLTEVETPICETPIRNEWG; epitope peptide; MISC_FEATURE (1)..(1): C is an attachment site for a CLIP; MISC_FEATURE (10)..(10): N is an attachment site for a CLIP; MISC_FEATURE (11)..(11): L is an attachment site for a CLIP; MISC_FEATURE (29)..(29): G is an attachment site for a CLIP) [compound 1512]”, 2645.
On to “1444 (CEVETPIRNELLTEVETPICLTEVETPIR; epitope peptide; MISC_FEATURE (1)..(1): C is an attachment site for a CLIP; MISC_FEATURE (10)..(10): E is an attachment site for a CLIP; MISC_FEATURE (11)..(11): L is an attachment site for a CLIP; MISC_FEATURE (29)..(29): R is an attachment site for a CLIP) [compound 1444]”, for which the “Signal (peptides that bind to Z3G1)” value worked out at 2000.
For the substance “1282 (MSLLFEVETPIRNEWGCRCN; epitope peptide) [compound 1282]”, the “Signal (peptides that bind to Z3G1)” value is reported as 2581.
As for “1368 (SLLTEVETPCRNE; epitope peptide) [compound 1368]”, the “Signal (peptides that bind to Z3G1)” value was 1665.
Take “1440 (CTEVETPIRNSLLTEVETPCLTEVETPIR; epitope peptide; MISC_FEATURE (1)..(1): C is an attachment site for a CLIP; MISC_FEATURE (10)..(10): N is an attachment site for a CLIP; MISC_FEATURE (11)..(11): S is an attachment site for a CLIP; MISC_FEATURE (29)..(29): R is an attachment site for a CLIP) [compound 1440]”: the “Signal (peptides that bind to Z3G1)” value was determined as 2705.
Same read-out and setting: as for “1387 (SLLCEVETPIRNEWC; epitope peptide) [compound 1387]”, the figure is 2406; as for “1398 (SLLTEVETPIRNECC; epitope peptide) [compound 1398]”, 1493.
Same read-out and setting: for “1288 (MSLLMEVETPIRNEWGCRCN; epitope peptide) [compound 1288]” the value was 2847.
“1589 (SLLVEVETPIRNEWGCRCNDSSD; epitope peptide) [compound 1589]”: the “Signal (peptides that show specific binding to Z3G1)” value amounted to 1932.
“1443 (CTEVETPIRNLLTEVETPICLTEVETPIR; epitope peptide; MISC_FEATURE (1)..(1): C is an attachment site for a CLIP; MISC_FEATURE (10)..(10): N is an attachment site for a CLIP; MISC_FEATURE (11)..(11): L is an attachment site for a CLIP; MISC_FEATURE (29)..(29): R is an attachment site for a CLIP) [compound 1443]”: the “Signal (peptides that bind to Z3G1)” value was 2213.
The same measure, in the same setting: for “439 (SLLTEVETPIRNE; epitope peptide) [compound 439]” the value was 1819.
As for “1343 (CSCLCEVGMSLLCEV; epitope peptide) [compound 1343]”, the “Signal (peptides that bind to Z3G1)” value is listed as 1945.
Still for that read-out and setting: as for “1272 (MSLHTEVETPIRNEWGCRCN; epitope peptide) [compound 1272]”, the figure is 2058; as for “1388 (SLLCEVETPIRNECG; epitope peptide) [compound 1388]”, 2107; as for “1462 (CETPIRNEWGLLTEVETPICTEVETPIRN; epitope peptide; MISC_FEATURE (1)..(1): C is an attachment site for a CLIP; MISC_FEATURE (10)..(10): G is an attachment site for a CLIP; MISC_FEATURE (11)..(11): L is an attachment site for a CLIP; MISC_FEATURE (29)..(29): N is an attachment site for a CLIP) [compound 1462]”, 1710.
Turning to “1559 (SLLCEVGSLLTCV; epitope peptide) [compound 1559]”, the “Signal (peptides that show specific binding to Z3G1)” value turned out to be 1972.
“1266 (MYLLTEVETPIRNEWGCRCN; epitope peptide) [compound 1266]”: the “Signal (peptides that bind to Z3G1)” value is 1960.
As for “1281 (MSLLEEVETPIRNEWGCRCN; epitope peptide) [compound 1281]”, the “Signal (peptides that bind to Z3G1)” value amounted to 2805.
With “1534 (SLLCEVETPIRNEWGCRCNDSSD; epitope peptide) [compound 1534]”, the “Signal (peptides that show specific binding to Z3G1)” value was found to be 2161.
Take “1474 (CVETPIRNEWSLLTEVETPCEVETPIRNE; epitope peptide; MISC_FEATURE (1)..(1): C is an attachment site for a CLIP; MISC_FEATURE (10)..(10): W is an attachment site for a CLIP; MISC_FEATURE (11)..(11): S is an attachment site for a CLIP; MISC_FEATURE (29)..(29): E is an attachment site for a CLIP) [compound 1474]”: the “Signal (peptides that bind to Z3G1)” value is 1986.
In the case of “1446 (CETPIRNEWGLLTEVETPICLTEVETPIR; epitope peptide; MISC_FEATURE (1)..(1): C is an attachment site for a CLIP; MISC_FEATURE (10)..(10): G is an attachment site for a CLIP; MISC_FEATURE (11)..(11): L is an attachment site for a CLIP; MISC_FEATURE (29)..(29): R is an attachment site for a CLIP) [compound 1446]”, the “Signal (peptides that bind to Z3G1)” value turned out to be 2367.
With “1298 (MSLLTTVETPIRNEWGCRCN; epitope peptide) [compound 1298]”, the “Signal (peptides that bind to Z3G1)” value turned out to be 2699.
“1578 (SLLAEVETPIRNEWGCRCNDSSD; epitope peptide) [compound 1578]”: the “Signal (peptides that show specific binding to Z3G1)” value is reported as 2356.
The same measure, in the same setting: for “1564 (ELLTEVETPIRNEWGCRCNDSSD; epitope peptide) [compound 1564]” the value was 2201.
“1303 (MSLLTEVHTPIRNEWGCRCN; epitope peptide) [compound 1303]”: the “Signal (peptides that bind to Z3G1)” value turned out to be 2751.
On the same count and under the same terms, for “1309 (MSLLTEVRTPIRNEWGCRCN; epitope peptide) [compound 1309]” the value was 2668; for “1250 (MALLTEVETPIRNEWGCRCN; epitope peptide) [compound 1250]”, 2604; for “1367 (SLLCEVCTPIRNE; epitope peptide) [compound 1367]”, 2283.
Consider “1551 (SLLCEVGSCLTEV; epitope peptide) [compound 1551]”, for which the “Signal (peptides that show specific binding to Z3G1)” value is recorded as 2499.
With “1460 (CEVETPIRNELLTEVETPICTEVETPIRN; epitope peptide; MISC_FEATURE (1)..(1): C is an attachment site for a CLIP; MISC_FEATURE (10)..(10): E is an attachment site for a CLIP; MISC_FEATURE (11)..(11): L is an attachment site for a CLIP; MISC_FEATURE (29)..(29): N is an attachment site for a CLIP) [compound 1460]”, the “Signal (peptides that bind to Z3G1)” value came out at 1620.
“1365 (SLLCEVETCIRNE; epitope peptide) [compound 1365]”: the “Signal (peptides that bind to Z3G1)” value stood at 2305.
Still for that read-out and setting: as for “1395 (SLLCEVCTPIRNEWG; epitope peptide) [compound 1395]”, the figure is 2384; as for “1386 (SLCCEVETPIRNEWG; epitope peptide) [compound 1386]”, 1603; as for “1253 (MFLLTEVETPIRNEWGCRCN; epitope peptide) [compound 1253]”, 1707.
For “1256 (MILLTEVETPIRNEWGCRCN; epitope peptide) [compound 1256]”, the “Signal (peptides that bind to Z3G1)” value is 1634.
With “1393 (SLLCEVETCIRNEWG; epitope peptide) [compound 1393]”, the “Signal (peptides that bind to Z3G1)” value was 2531.
On the same count and under the same terms, as for “1479 (CTEVETPIRNLLTEVETPICEVETPIRNE; epitope peptide; MISC_FEATURE (1)..(1): C is an attachment site for a CLIP; MISC_FEATURE (10)..(10): N is an attachment site for a CLIP; MISC_FEATURE (11)..(11): L is an attachment site for a CLIP; MISC_FEATURE (29)..(29): E is an attachment site for a CLIP) [compound 1479]”, the figure is 1627; as for “1397 (CLLTEVCTPIRNEWG; epitope peptide) [compound 1397]”, 1634.
The same measure, in the same setting: for “1348 (MSLCTEVGCSCLCEV; epitope peptide) [compound 1348]” the value was 2001.

For the origin of these results see patent US8932597B2 (priority 2008, dated 2015).
